Results from ChEMBL document CHEMBL4041466, “Synthesis and evaluation of new benzodioxole-based dithiocarbamate derivatives as potential anticancer agents and hCA-I and hCA-II inhibitors” (Eur J Med Chem, 2017).
≈ marks a conversion by molar mass, not a printed value.

How the values were obtained:
A549 = experiment: Antiproliferative activity against human A549 cells after 24 hrs by MTT assay; details: A549, 24 h
C6 = experiment: Antiproliferative activity against rat C6 cells after 24 hrs by MTT assay; details: C6, 24 h

Row | IC50 (A549) | Compound | IC50 (C6)
1 | > 1000 µg/mL | O=C(CSC(=S)NN1CCN(c2ccccc2)CC1)NCc1ccc2c(c1)OCO2 | 163 µg/mL (≈ 367 µM)
2 | 810 µg/mL (≈ 2120 µM) | CC1CCN(NC(=S)SCC(=O)NCc2ccc3c(c2)OCO3)CC1 | 567 µg/mL (≈ 1490 µM)
3 | > 1000 µg/mL | CN1CCN(NC(=S)SCC(=O)NCc2ccc3c(c2)OCO3)CC1 | 167 µg/mL (≈ 436 µM)
4 | 833 µg/mL (≈ 1870 µM) | O=C(CSC(=S)NN1CCN(c2ncccn2)CC1)NCc1ccc2c(c1)OCO2 | 48.3 µg/mL (≈ 108 µM)
5 | 850 µg/mL (≈ 2140 µM) | CCN1CCN(NC(=S)SCC(=O)NCc2ccc3c(c2)OCO3)CC1 | 157 µg/mL (≈ 395 µM)
6 | 700 µg/mL (≈ 1890 µM) | O=C(CSC(=S)NN1CCOCC1)NCc1ccc2c(c1)OCO2 | 207 µg/mL (≈ 559 µM)
7 | > 1000 µg/mL | COc1ccc(N2CCN(NC(=S)SCC(=O)NCc3ccc4c(c3)OCO4)CC2)cc1 | 58.3 µg/mL (≈ 123 µM)
8 | 875 µg/mL (≈ 2380 µM) | O=C(CSC(=S)NN1CCCCC1)NCc1ccc2c(c1)OCO2 | 633 µg/mL (≈ 1720 µM)
9 | > 1000 µg/mL | O=C(CSC(=S)NN1CCN(c2ccc([N+](=O)[O-])cc2)CC1)NCc1ccc2c(c1)OCO2 | 23.3 µg/mL (≈ 47.7 µM)
10 | > 1000 µg/mL | O=C(CSC(=S)NN1CCSCC1)NCc1ccc2c(c1)OCO2 | 220 µg/mL (≈ 571 µM)
